Laboratory results taken from US20140094465A1, “Compounds as S-Nitrosoglutathione Reductase Inhibitors” (N30 PHARMACEUTICALS, INC., priority 2011, published 2014).

Molecular target: T1, S-nitrosoglutathione reductase (GSNOR) (Homo sapiens, UniProt P11766)
T1 construct: made in house; host or cells: E. coli
Assay: GSNOR assay (inhibition of GSNOR activity, NADH absorbance at 340 nm)
Format: biochemical
Settings: GSNOR inhibitor activity, Tables 1-6; read-out: IC50 range
Procedure: Various compounds were tested in vitro for their ability to inhibit GSNOR activity.
GSNOR expression and purification is described in Biochemistry 2000, 39, 10720-10729.
Pre-cultures were grown from stabs of a GSNOR glycerol stock in 2XYT media containing 100 ug/ml ampicillin after an overnight incubation at 37° C. […] GSNOR expression was induced with 0.1% arabinose in an overnight incubation at 20° C.
E. coli cell paste was lysed by nitrogen cavitation and the clarified lysate purified by Ni affinity chromatography on an AKTA FPLC (Amersham Pharmacia). The column was eluted in 20 mM Tris pH 8.0/250 mM NaCl with a 0-500 mM imidazole gradient. Eluted GSNOR fractions containing the Smt-GSNOR fusion were digested overnight with Ulp-1 at 4° C. to remove the affinity tag then re-run on the Ni column under the same conditions. GSNOR was recovered in the flowthrough fraction and for crystallography is further purified by Q-Sepharose and Heparin flowthrough chromatography in 20 mM Tris pH 8.0, 1 mM DTT, 10 uM ZnSO4.
GSNOR assay: GSNO and enzyme/NADH Solutions are made up fresh each day. The solutions are filtered and allowed to warm to room temperature. GSNO solution: 100 mM NaPO4 (pH 7.4), 0.480 mM GSNO. 396 μL of GSNO Solution is added to a cuvette followed by 8 μL of test compound in DMSO (or DMSO only for full reaction control) and mixed with the pipette tip. Compounds to be tested are made up at a stock concentration of 10 mM in 100% DMSO. 2 fold serial dilutions are done in 100% DMSO. 8 μL of each dilution are added to an assay so that the final concentration of DMSO in the assay is 1%. The concentrations of compounds tested range from 100 to 0.003 μM. Enzyme/NADH solution: 100 mM NaPO4 (pH 7.4), 0.600 mM NADH, 1.0 μg/mL GSNO Reductase. 396 μL of the Enzyme/NADH solution is added to the cuvette to start the reaction. The cuvette is placed in the Cary 3E UV/Visible Spectrophotometer and the change in 340 nm absorbance/min at 25° C. is recorded for 3 minutes. The assays are done in triplicate for each compound concentration. IC50's for each compound are calculated using the standard curve analysis in the Enzyme Kinetics Module of SigmaPlot.
Final assay conditions: 100 mM NaPO4, pH 7.4, 0.240 mM GSNO, 0.300 mM NADH, 0.5 μg/mL GSNO Reductase, and 1% DMSO. Final volume: 800 μL/cuvette.

T1 sequence (P11766 whole entry): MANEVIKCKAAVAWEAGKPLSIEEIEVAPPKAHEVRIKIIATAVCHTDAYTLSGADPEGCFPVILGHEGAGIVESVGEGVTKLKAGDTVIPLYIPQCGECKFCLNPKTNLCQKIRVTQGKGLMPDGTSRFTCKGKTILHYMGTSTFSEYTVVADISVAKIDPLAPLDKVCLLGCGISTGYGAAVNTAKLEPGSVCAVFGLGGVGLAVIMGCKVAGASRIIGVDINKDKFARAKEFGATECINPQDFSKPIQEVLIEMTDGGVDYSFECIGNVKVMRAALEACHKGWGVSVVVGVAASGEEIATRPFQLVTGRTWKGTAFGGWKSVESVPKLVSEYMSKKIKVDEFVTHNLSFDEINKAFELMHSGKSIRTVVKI

Q: How did the IC50 turn out when `O=C(O)c1ccc(Oc2coc3cc(O)ccc3c2=O)cc1` [Compound V-12, 4-(7-hydroxy-4-oxo-4H-chromen-3-yloxy)benzoic acid] was run?
A: 1000 to 10000 nM

Q: With `O=C(O)c1ccc(Oc2c(C(F)(F)F)oc3cc(O)ccc3c2=O)cc1O` [Compound V-13, 2-hydroxy-4-(7-hydroxy-4-oxo-2-(trifluoromethyl)-4H-chromen-3-yloxy)benzoic acid] as the compound, how does the IC50 read?
A: 100 to 1000 nM

Q: `CN(c1ccc(C(=O)O)cc1)c1c(C(F)(F)F)oc2cc(O)ccc2c1=O` [Compound V-14, 4-((7-hydroxy-4-oxo-2-(trifluoromethyl)-4H-chromen-3-yl)(methyl)amino)benzoic acid] was tested. Which IC50 did it give?
A: 1000 to 10000 nM

Q: With `O=C(O)c1ccc(Nc2c(C(F)(F)F)oc3cc(O)ccc3c2=O)cc1` [Compound V-15, 4-(7-hydroxy-4-oxo-2-(trifluoromethyl)-4H-chromen-3-ylamino)benzoic acid] as the compound, how does the IC50 read?
A: 1000 to 10000 nM

Q: With `O=c1c(Oc2ccc([N+](=O)[O-])c(O)c2)c(C(F)(F)F)oc2cc(O)ccc12` [Compound V-16, 7-hydroxy-3-(3-hydroxy-4-nitrophenoxy)-2-(trifluoromethyl)-4H-chromen-4-one] as the compound, how does the IC50 read?
A: < 100 nM

Q: With `O=c1c(Oc2ccc(O)c([N+](=O)[O-])c2)c(C(F)(F)F)oc2cc(O)ccc12` [Compound V-17, 7-hydroxy-3-(4-hydroxy-3-nitrophenoxy)-2-(trifluoromethyl)-4H-chromen-4-one] as the compound, how does the IC50 read?
A: 100 to 1000 nM

Q: Which IC50 does the source give for `O=C(O)c1ccc(-c2ncc3cc(O)ccc3n2)cc1` [II-1] here?
A: < 100 nM

Q: With `O=C(O)c1ccc(-c2ncc3cc(O)ccc3n2)c(Cl)c1` [II-3] as the compound, how does the IC50 read?
A: < 100 nM

Q: How did the IC50 turn out when `Cc1cc(C(=O)O)ccc1-c1ncc2cc(O)ccc2n1` [II-4] was run?
A: < 100 nM

Q: `COc1cc(C(=O)O)ccc1-c1ncc2cc(O)ccc2n1` [II-5] was tested. Which IC50 did it give?
A: < 100 nM

Q: `O=C(O)c1ccc(-c2ncc3cc(O)ccc3n2)c(F)c1` [II-6] was tested. Which IC50 did it give?
A: < 100 nM

Q: How did the IC50 turn out when `O=C(O)C1CCN(c2ncc3cc(O)ccc3n2)CC1` [II-7] was run?
A: 1000 to 10000 nM

Q: How did the IC50 turn out when `O=C(O)c1ccc(-c2nc3ccc(O)cc3nc2C(F)(F)F)c(Cl)c1` [II-8] was run?
A: < 100 nM

Q: With `Oc1ccc2nc(-c3ccc(-c4nn[nH]n4)cc3)c(C(F)(F)F)nc2c1` [II-10] as the compound, how does the IC50 read?
A: < 100 nM

Q: Which IC50 does the source give for `O=C(O)C1CCN(c2nc3ccc(O)cc3nc2C(F)(F)F)CC1` [II-11] here?
A: < 100 nM

Q: How did the IC50 turn out when `O=C(O)C1CC=C(c2nc3ccc(O)cc3nc2C(F)(F)F)CC1` (stereo not shown) [II-12] was run?
A: < 100 nM

Q: Which IC50 does the source give for `Oc1ccc2nc(C(F)(F)F)c(-c3ccc(-c4nnn[nH]4)cc3)nc2c1` [II-16] here?
A: 100 to 1000 nM

Q: With `O=C(O)c1ccc(-c2nnc3cc(O)ccc3n2)c(F)c1` [II-20] as the compound, how does the IC50 read?
A: < 100 nM

Q: How did the IC50 turn out when `O=C(O)c1ccc(-c2cc3ccc(O)cc3cn2)c(F)c1` [II-24, 3-fluoro-4-(7-hydroxyisoquinolin-3-yl)benzoic acid] was run?
A: < 100 nM

Q: How did the IC50 turn out when `Cc1c(-c2ccc(C(=O)O)cc2)ncc2cc(O)ccc12` [II-25, 4-(7-hydroxy-4-methylisoquinolin-3-yl)benzoic acid] was run?
A: 100 to 1000 nM

Q: With `O=C(O)c1ccc(-c2nc3ccc(O)cc3nc2C(F)(F)F)c(F)c1` [II-26, 3-fluoro-4-(6-hydroxy-3-(trifluoromethyl)quinoxalin-2-yl)benzoic acid] as the compound, how does the IC50 read?
A: < 100 nM

Q: Which IC50 does the source give for `O=C(O)[C@H]1CC[C@H](c2nc3ccc(O)cc3nc2C(F)(F)F)CC1` [II-27, (trans)-4-(6-hydroxy-3-(trifluoromethyl)quinoxalin-2-yl)cyclohexanecarboxylic acid] here?
A: < 100 nM

Q: How did the IC50 turn out when `O=C(O)[C@H]1CC[C@@H](c2nc3ccc(O)cc3nc2C(F)(F)F)CC1` [II-28, (cis)-4-(6-hydroxy-3-(trifluoromethyl)quinoxalin-2-yl)cyclohexanecarboxylic acid] was run?
A: 1000 to 10000 nM

Q: How did the IC50 turn out when `COc1cc(C(=O)O)ccc1-c1ccc2cc(O)ccc2c1` [III-3] was run?
A: < 100 nM

Q: Which IC50 does the source give for `O=C(O)c1ccc(-c2ccc3cc(O)ccc3c2)cn1` [III-4] here?
A: 1000 to 10000 nM

Q: Which IC50 does the source give for `CN(C)c1cc(C(=O)O)ccc1-c1ccc2cc(O)ccc2c1` [III-5] here?
A: < 100 nM

Q: `N#Cc1cc(C(=O)O)ccc1-c1ccc2cc(O)ccc2c1` [III-6] was tested. Which IC50 did it give?
A: < 100 nM

Q: How did the IC50 turn out when `O=C(O)c1ccc(-c2ccc3cc(O)ccc3c2)nc1` [III-7] was run?
A: 100 to 1000 nM

Q: With `O=C(O)c1cnc(-c2ccc3cc(O)ccc3c2)cn1` [III-8] as the compound, how does the IC50 read?
A: 100 to 1000 nM

Q: `O=C(O)c1cnc(-c2ccc3cc(O)ccc3c2)nc1` [III-9] was tested. Which IC50 did it give?
A: 100 to 1000 nM

Q: `O=C(O)c1ccc(-c2ccc3cc(O)ccc3c2)c(N2CCOCC2)c1` [III-10] was tested. Which IC50 did it give?
A: 100 to 1000 nM

Q: For `O=C(O)c1ccc(-c2ccc3cc(O)ccc3c2)nn1` [III-11], which IC50 is on record?
A: 1000 to 10000 nM

Q: Which IC50 does the source give for `O=C(O)c1ncc(-c2ccc3cc(O)ccc3c2)cn1` [III-14] here?
A: 1000 to 10000 nM

Q: `Oc1ccc2cc(-c3ccc(-c4nnn[nH]4)cc3)ccc2c1` [III-18] was tested. Which IC50 did it give?
A: < 100 nM

Q: `O=C(O)c1ccc(-c2ccc3cc(O)ccc3c2)c(C(F)(F)F)c1` [III-20, 4-(6-hydroxynaphthalen-2-yl)-3-(trifluoromethyl)benzoic acid] was tested. Which IC50 did it give?
A: < 100 nM

Q: `O=C(O)c1ccc(-c2cc3ccc(O)cc3cc2F)c(Cl)c1` [III-21, 3-chloro-4-(3-fluoro-6-hydroxynaphthalen-2-yl)benzoic acid] was tested. Which IC50 did it give?
A: < 100 nM

Q: With `O=C(O)c1ccc(-c2cc3ccc(O)cc3cc2Cl)cc1` [III-22, 4-(3-chloro-6-hydroxynaphthalen-2-yl)benzoic acid] as the compound, how does the IC50 read?
A: < 100 nM

Q: Which IC50 does the source give for `O=C(O)c1ccc(-c2cc3ccc(O)cc3cc2F)cc1` [III-23, 4-(3-fluoro-6-hydroxynaphthalen-2-yl)benzoic acid] here?
A: < 100 nM

Q: How did the IC50 turn out when `COc1c(-c2ccc(C(=O)O)cc2)ccc2cc(O)ccc12` [III-24, 4-(6-hydroxy-1-methoxynaphthalen-2-yl)benzoic acid] was run?
A: < 100 nM

Q: `O=C(O)c1ccc(-c2cc3ccc(O)cc3cc2O)cc1` [III-25, 4-(3,6-dihydroxynaphthalen-2-yl)benzoic acid] was tested. Which IC50 did it give?
A: 1000 to 10000 nM

Q: `O=C(O)c1ccc(-c2ccc3cc(O)ccc3c2F)cc1` [III-26, 4-(1-fluoro-6-hydroxynaphthalen-2-yl)benzoic acid] was tested. Which IC50 did it give?
A: < 100 nM

Q: With `Cc1cc2cc(O)ccc2cc1-c1ccc(C(=O)O)cc1` [III-27, 4-(6-hydroxy-3-methylnaphthalen-2-yl)benzoic acid] as the compound, how does the IC50 read?
A: < 100 nM

Q: Which IC50 does the source give for `N#Cc1c(-c2ccc(C(=O)O)cc2F)ccc2cc(O)ccc12` [III-29] here?
A: < 100 nM

Q: Which IC50 does the source give for `O=C(O)c1ccc(-c2ccc3c(F)c(O)ccc3c2)c(Cl)c1` [III-30] here?
A: < 100 nM

Q: For `O=C(O)c1ccc(-c2ccc3c(F)c(O)ccc3c2)c(F)c1` [III-32], which IC50 is on record?
A: < 100 nM

Q: For `Cc1cc(C(=O)O)ccc1-c1ccc2c(F)c(O)ccc2c1` [III-33], which IC50 is on record?
A: < 100 nM

Q: With `COc1cc(-c2ccc3cc(O)ccc3c2)ccc1C(=O)O` [III-34, 4-(6-hydroxynaphthalen-2-yl)-2-methoxybenzoic acid] as the compound, how does the IC50 read?
A: 100 to 1000 nM

Q: How did the IC50 turn out when `O=C(O)c1ccc(-c2ccc3cc(O)ccc3c2)cc1O` [III-35, 2-hydroxy-4-(6-hydroxynaphthalen-2-yl)benzoic acid] was run?
A: < 100 nM

Q: How did the IC50 turn out when `O=[N+]([O-])c1cc(-c2ccc3cc(O)ccc3c2)ccc1O` [III-36, 6-(4-hydroxy-3-nitrophenyl)naphthalen-2-ol] was run?
A: 100 to 1000 nM

Q: `Cc1cc(C(=O)O)ccc1-c1ccc2cc(O)ccc2c1` [III-37, 4-(6-hydroxynaphthalen-2-yl)-3-methylbenzoic acid] was tested. Which IC50 did it give?
A: < 100 nM

Q: How did the IC50 turn out when `O=C(O)c1ccc(-c2cc(F)c3cc(O)ccc3c2)c(F)c1` [III-38, 3-fluoro-4-(4-fluoro-6-hydroxynaphthalen-2-yl)benzoic acid] was run?
A: < 100 nM

Q: Which IC50 does the source give for `O=C(O)c1ccc(-c2cc(F)c3cc(O)ccc3c2)cc1` [III-39, 4-(4-fluoro-6-hydroxynaphthalen-2-yl)benzoic acid] here?
A: < 100 nM

Q: How did the IC50 turn out when `O=C(O)c1ccc(-c2cc(F)c3c(F)c(O)ccc3c2)c(F)c1` [III-40, 4-(4,5-difluoro-6-hydroxynaphthalen-2-yl)-3-fluorobenzoic acid] was run?
A: < 100 nM

Q: `Cc1cc(C(=O)O)ccc1-c1cc(F)c2c(F)c(O)ccc2c1` [III-41, 4-(4,5-difluoro-6-hydroxynaphthalen-2-yl)-3-methylbenzoic acid] was tested. Which IC50 did it give?
A: < 100 nM

Q: With `O=C(O)c1ccc(-c2cc(F)c3c(F)c(O)ccc3c2)cc1` [III-42, 4-(4,5-difluoro-6-hydroxynaphthalen-2-yl)benzoic acid] as the compound, how does the IC50 read?
A: < 100 nM

Q: For `COc1cc(C(=O)O)ccc1-c1cc(F)c2c(F)c(O)ccc2c1` [III-43, 4-(4,5-difluoro-6-hydroxynaphthalen-2-yl)-3-methoxybenzoic acid], which IC50 is on record?
A: < 100 nM

Q: Which IC50 does the source give for `COCc1oc2cc(O)ccc2c(=O)c1-c1ccc(C(=O)O)cc1` [IV-2] here?
A: 100 to 1000 nM

Q: `Cc1oc2cc(O)ccc2c(=O)c1-c1ccc(C(=O)O)cc1` [IV-5] was tested. Which IC50 did it give?
A: 100 to 1000 nM
